Values joined by “and” are separate entries in the source; they are usually repeats but may differ in a detail not shown here. Equal values may be shown once.
Target: T1, abc isoform of human TMEM16A channel expressed in CHO cells (Homo sapiens, UniProt Q5XXA6, DEL476-501)
T1 construct: expressed in transfected cells; host or cells: CHO cells, doxycycline-inducible expression under Blasticidin/Zeocin selection
T1 sequence (Q5XXA6 with tags, fused parts or gaps isoform Q5XXA6-5 DEL539-564): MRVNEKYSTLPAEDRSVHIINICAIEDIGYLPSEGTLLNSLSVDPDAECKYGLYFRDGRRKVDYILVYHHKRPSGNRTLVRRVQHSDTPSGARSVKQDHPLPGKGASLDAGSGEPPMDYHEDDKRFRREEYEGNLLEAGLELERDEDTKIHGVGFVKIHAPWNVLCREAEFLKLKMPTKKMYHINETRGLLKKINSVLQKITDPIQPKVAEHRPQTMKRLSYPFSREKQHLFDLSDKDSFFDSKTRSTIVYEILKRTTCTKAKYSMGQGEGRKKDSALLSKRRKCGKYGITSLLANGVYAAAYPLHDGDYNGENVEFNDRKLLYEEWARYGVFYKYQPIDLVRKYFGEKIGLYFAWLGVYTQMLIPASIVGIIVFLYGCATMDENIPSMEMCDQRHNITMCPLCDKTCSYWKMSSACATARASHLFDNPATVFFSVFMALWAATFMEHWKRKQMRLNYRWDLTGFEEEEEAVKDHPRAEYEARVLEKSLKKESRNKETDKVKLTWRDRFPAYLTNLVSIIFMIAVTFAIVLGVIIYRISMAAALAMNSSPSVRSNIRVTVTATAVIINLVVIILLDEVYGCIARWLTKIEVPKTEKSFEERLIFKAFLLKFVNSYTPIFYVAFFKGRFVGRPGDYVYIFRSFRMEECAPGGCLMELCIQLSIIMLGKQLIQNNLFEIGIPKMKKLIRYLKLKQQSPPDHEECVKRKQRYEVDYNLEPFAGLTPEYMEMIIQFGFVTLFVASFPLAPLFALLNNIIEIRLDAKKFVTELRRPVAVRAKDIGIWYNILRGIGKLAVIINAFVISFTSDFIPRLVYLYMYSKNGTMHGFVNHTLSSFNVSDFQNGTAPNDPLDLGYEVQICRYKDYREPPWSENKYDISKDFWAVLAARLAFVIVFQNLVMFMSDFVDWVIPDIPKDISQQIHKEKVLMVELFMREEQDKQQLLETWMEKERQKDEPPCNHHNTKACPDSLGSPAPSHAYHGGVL
Experiment: Automated patch clamping (QPatch) assay to measure TMEM16A activity in whole-cell
Assay type: cell-based
Conditions: for EC50: CHO cells expressing human TMEM16A (abc), whole-cell automated patch clamp, Hill fit, read-out: TMEM16A QPATCH assay EC50 V3 EC50; for Emax: CHO, read-out: TMEM16A QPATCH assay EC50 V3 Assay Window (% TMEM16A max activation); for Emax / TMEM16A QPATCH assay EC50 V3 Assay Window (% TMEM16A max activation): maximum current at highest dose relative to reference potentiator at maximal concentration (upper limit) and vehicle (lower limit)
Procedure: Automated Patch Clamping Assay to Measure TMEM16A Activity in Whole-Cell
Chinese hamster ovary cells (CHO) cells expressing abc isoform of human TMEM16A channel (Ref) were grown in vented cell-culture flasks (Corning) containing cell culture medium (1×F-12 Ham, 10% FBS, 1% Penicillin-streptomycin, 5 μg/mL Blasticidin S HCl, 400 μg/mL Zeocin), maintained at 37° C. in an incubator with 5% C02, 95% 02 and 100% humidity. The cells were passaged every 2-3 days at 80-90% confluence by aspirating the cell culture medium, washing twice with 10 mL D-PBS then incubating with 4 mL Trypsin-EDTA for no longer than 5 minutes. Trypsin was neutralized with the addition of 32 mL growth medium to the cell suspension, the cells were counted using a viable-cell counter (Vi-CELL; Beckmann-Coulter) and new flasks were seeded at a cell density of 0.01, 0.02, or 0.05×10^6 cells per cm2 for 3, 2, or 1 day(s) growth, respectively. Cell suspension was diluted in the new 175 cm2 flask with 50 mL of growth medium. Doxycycline was used to induce the expression of TMEM16A channel protein and was added directly to the culture flask 18-24 hours in advance of assay at a final concentration of 1 μg/mL. Induced cells were washed with D-PBS and detached from their culture flasks by adding 10 mL of Detachin and incubating for 10 minutes. Once detached, 5 mL of QPatch assay medium (1×CHO-S-SFM II (Sigma), 25 mM HEPES) was added and the resultant cell suspension counted using the Vi-CELL viable cell counter. The optimal cell density for this QPatch assay is 2-5×1 06 cells/mL; re-adjusted as necessary with QPatch assay medium.
The ion channel activity of TMEM16A (abc) expressed in CHO cells was assed using an automated patch clamp system (Qpatch, Sophion). These systems use planar patch-clamp technology to enable high-resistance, continuous whole-cell recordings from multiple cells in parallel, whilst maintaining each individual cell as an isolated experiment. First, each well was primed with intracellular and extracellular solutions described below. Cells were spun down, washed and then resuspended using extracellular solution. Intracellular solution: 130 mM N-methyl-D-glucamine, 10 mM EGTA, 20 mM CaCl2, 1 mM MgCl2, 10 mM HEPES 10, 10 mM BAPTA, 99 mM Sucrose, 2 mM Mg-ATP, pH 7.3, 320 mOsm Extracellular solution: 130 mM N-methyl-D-glucamine, 10 mM EGTA, 20 mM CaCl2, 1 mM MgCl2, 10 mM HEPES 10, 10 mM BAPTA, 99 mM Sucrose, 2 mM Mg-ATP, pH 7.3, 320 mOsm. Resuspended cells were then added to each well and suction was applied from the intracellular side in order to position a cell on the chip aperture, form a high resistance (GO) seal and achieve a whole-cell recording configuration. Following successful whole cell access, cell membranes were maintained at a voltage of −70 mV until the voltage protocol is applied. From this voltage, membranes were depolarized to +70 mV for 1500 ms, and then hyperpolarized to […] before being depolarized again from −90 to +70 mV in a continuous ramp waveform. At the end of the ramp, the membrane voltage is stepped back to −70 mV until the next waveform was applied. Compounds were dissolved at 10 mM in 100% DMSO and then diluted into extracellular solution (0.3% DMSO final) to the desired final concentration. The assay lower and upper limit were defined as follow, average amplitude (nA) of the last 3 sweeps in the vehicle addition of each cell was considered the basal current (lower limit); the average maximum current response in 3 cells for a reference potentiator at maximal concentration (upper limit). Current values for each compound concentration were then plotted against […]. EC50 curves are fitted to concentration-response data using curve-fitting functions (Hill fit) within the QPatch software. Curve fitting is constrained between the lowest concentration (vehicle-only addition) and the highest current value measured within the concentration range. […]

| Structure (SMILES) | EC50 | Emax [%] | TMEM16A QPATCH assay EC50 V3 Assay Window (% TMEM16A max activation) [%] |
| --- | --- | --- | --- |
| CCC(CC)NC(=O)c1cnc(-c2cccc(-c3cc(C(=O)N[C@@H](C)[C@H]4CCCO4)n[nH]3)c2)o1 (single isomer, unassigned) [3.0 (i)] | 490 nM | 92 | – |
| CCC(CC)NC(=O)c1cnc(-c2cccc(-c3cc(C(=O)N[C@@H](C)[C@@H]4CCCO4)n[nH]3)c2)o1 (single isomer, unassigned) [3.0 (ii)] | 950 nM | 79 | – |
| COC(=O)[C@@H](NC(=O)c1cnc(-c2cccc(-c3cc(C(=O)N[C@@H](C)C4CC4)n(CC(O)C(F)(F)F)n3)c2)o1)C(C)C (single isomer, unassigned) [8.1 (i)] | 10 nM | 135 | – |
| COC(=O)[C@@H](NC(=O)c1cnc(-c2cccc(-c3cc(C(=O)N[C@@H](C)C4CC4)n(CC(O)C(F)(F)F)n3)c2)o1)C(C)C (single isomer, unassigned) [8.1 (ii)] | 20 nM | – | 124 |
| CCOC(=O)[C@@H](NC(=O)c1cnc(-c2cccc(-c3cc(C(=O)NC(C4CC4)C(F)(F)F)[nH]n3)c2)o1)C(C)C (single isomer, unassigned) [Example 2.3 (i)] | 30 nM | 86 | – |
| CCOC(=O)[C@@H](NC(=O)c1cnc(-c2cccc(-c3cc(C(=O)NC(C4CC4)C(F)(F)F)[nH]n3)c2)o1)C(C)C (single isomer, unassigned) [Example 2.3 (ii)] | 80 nM | – | 97 |
| CCC(CC)NC(=O)c1cnc(-c2cccc(-c3cc(C(=O)NC(C4CC4)C4CCCO4)n[nH]3)c2)o1 (single isomer, unassigned) [Example 3.4 (i), 2-(3-(3-((Cyclopropyl(Tetrahydrofuran-2-Yl)Methyl)Carbamoyl)-1H-Pyrazol-5-Yl)Phenyl)-N-(Pentan-3-Yl)Oxazole-5-Carboxamide] | 710 nM | – | 90 |
| CCC(CC)NC(=O)c1cnc(-c2cccc(-c3cc(C(=O)NC(C4CC4)C4CCCO4)n[nH]3)c2)o1 (single isomer, unassigned) [Example 3.4 (ii), 2-(3-(3-((Cyclopropyl(Tetrahydrofuran-2-Yl)Methyl)Carbamoyl)-1H-Pyrazol-5-Yl)Phenyl)-N-(Pentan-3-Yl)Oxazole-5-Carboxamide] | 260 nM | – | 115 |
| CCC(CC)NC(=O)c1cnc(-c2cccc(-c3cc(C(=O)NC(C4CC4)C4CCCO4)n[nH]3)c2)o1 (single isomer, unassigned) [Example 3.4 (iii), 2-(3-(3-((Cyclopropyl(Tetrahydrofuran-2-Yl)Methyl)Carbamoyl)-1H-Pyrazol-5-Yl)Phenyl)-N-(Pentan-3-Yl)Oxazole-5-Carboxamide] | 550 nM | – | 73 |
| CCC(CC)NC(=O)c1cnc(-c2cccc(-c3cc(C(=O)NC(C4CC4)C4CCCO4)n[nH]3)c2)o1 (single isomer, unassigned) [Example 3.4 (iv), 2-(3-(3-((Cyclopropyl(Tetrahydrofuran-2-Yl)Methyl)Carbamoyl)-1H-Pyrazol-5-Yl)Phenyl)-N-(Pentan-3-Yl)Oxazole-5-Carboxamide] | 380 nM | – | 73 |
| CCC(CC)NC(=O)c1cnc(-c2cccc(-c3cc(C(=O)N[C@@H](C#N)CC)n[nH]3)c2)o1 (single isomer, unassigned) [Example 3.26, (R)-2-(3-(3-((1-Cyanopropyl)Carbamoyl)-1H-Pyrazol-5-Yl)Phenyl)-N-(Pentan-3-Yl)Oxazole-5-Carboxamide or (S)-2-(3-(3-((1-Cyanopropyl)Carbamoyl)-1H-Pyrazol-5-Yl)Phenyl)-N-(Pentan-3-Yl)Oxazole-5-Carboxamide] | 240 nM | – | 109 |
| C[C@H](NC(=O)c1cc(-c2cccc(-c3ncc(C(=O)NC(C4CC4)C4CC4)o3)c2)nn1CC(O)C(F)(F)F)C1CC1 (single isomer, unassigned) [Example 9.2 (i)] | 130 nM | – | 115 |
| C[C@H](NC(=O)c1cc(-c2cccc(-c3ncc(C(=O)NC(C4CC4)C4CC4)o3)c2)nn1CC(O)C(F)(F)F)C1CC1 (single isomer, unassigned) [Example 9.2 (ii)] | 40 nM | – | 83 |
| CCOC(=O)[C@@H](NC(=O)c1cnc(-c2cccc(-c3cc(C(=O)N[C@@H](C)C4CC4)n[nH]3)c2)o1)C(C)C [Example 1.0, (S)-Ethyl 2-(2-(3-(3-(((S)-1-Cyclopropylethyl)Carbamoyl)-1H-Pyrazol-5-Yl)Phenyl)Oxazole-5-Carboxamido)-3-Methylbutanoate] | 40 nM | 79 | – |
| CCOC(=O)[C@@H](NC(=O)c1cnc(-c2cccc(-c3cc(C(=O)NC(CC)CC)n[nH]3)c2)o1)C(C)C [Example 1.1, (S)-Ethyl 3-Methyl-2-(2-(3-(3-(Pentan-3-Ylcarbamoyl)-1 H-Pyrazol-5-Yl)Phenyl)Oxazole-5-Carboxamido)Butanoate] | 20 nM and 10 nM | 90 | 100 |
| CCC(CC)NC(=O)c1cc(-c2cccc(-c3ncc(C(=O)NC4CCCC4)o3)c2)[nH]n1 [Example 1.2] | 800 nM | 83 | – |
| CCC(CC)NC(=O)c1cc(-c2cccc(-c3ncc(C(=O)Nc4cc(C)cc(C)c4)o3)c2)[nH]n1 [Example 1.3] | 560 nM | 82 | – |
| COC(=O)[C@H](CC1CCCCC1)NC(=O)c1cnc(-c2cccc(-c3cc(C(=O)NC(C4CC4)C4CC4)n[nH]3)c2)o1 [Example 1.4, (S)-Methyl 3-Cyclohexyl-2-(2-(3-(3-((Dicyclopropylmethyl)Carbamoyl)-1H-Pyrazol-5-Yl)Phenyl)Oxazole-5-Carboxamido)Propanoate] | 910 nM | 103 | – |

— patent US20220306617A1, “SUBSTITUTED 1,3-PHENYL HETEROARYL DERIVATIVES AND THEIR USE IN THE TREATMENT OF DISEASE” (NOVARTIS AG, priority 2019, published 2022)
